In patent publication US8178506B2, “Oligomeric compounds and compositions for use in modulation of small non-coding RNAs” (Regulus Therapeutics Inc., priority 2003, dated 2012):
In the oligonucleotide strings, read from the 5' end, every base follows the letter of its sugar. An asterisk marks phosphorothioate; unmarked linkages are phosphodiester. Other units and linkages are bracketed, terminal groups are in braces. A string of capitals states the bases alone. e = 2'-O-(2-methoxyethyl) (MOE); [5mC] = 5-methylcytosine; d = 2'-deoxy (DNA)

What was measured:
PEPCK-c = PEPCK-c mRNA expression in HepG2 cells; assay type: cell-based, human; settings: for decrease in PEPCK-c mRNA: HepG2, basal (no insulin); for decrease in PEPCK-c mRNA / reduction of PEPCK-c mRNA expression: 100 nM; for PEPCKc mRNA expression: Experiment 2, insulin treated: HepG2 cells transfected with oligomeric compound, 1 nM insulin for four hours, UTC + 1 nM insulin = 100; for reduction of PEPCK-c mRNA expression: HepG2, 1 nM insulin
Description: (§1) Approximately 28 hours after transfection, the cells are subjected to serum starvation for a period of 12 to 16 hours, using serum-free growth medium. Following serum starvation, cells are treated with 1 nM insulin (insulin-treated) or are left untreated (basal conditions) for approximately four hours. At the same time, untreated control cells in both plates are treated with 100 nM insulin to determine the maximal insulin response. Following insulin treatment (forty-eight hours after transfection), total RNA is harvested from all samples, and the amount of total RNA from each sample is determined using a Ribogreen assay (Invitrogen Corporation, Carlsbad, Calif.). Real-time PCR is performed on the total RNA samples using primer/probe sets for three insulin responsive genes: insulin-like growth factor binding protein-1 (IGFBP-1), cytosolic PEPCK (PEPCK-C), and follistatin. Gene expression levels obtained by real-time PCR are normalized for total RNA content in the samples.
(§2) Oligomeric compounds of the present invention were tested for their effects on insulin signaling in HepG2 cells. HepG2 cells were plated at 7500 cells/well in collagen coated 96-well plates. The following day, cells were transfected with oligomeric compounds targeting miRNAs using 100 nM oligomeric compound in LIPOFECTIN™ (Invitrogen Corporation, Carlsbad, Calif.) in two 96-well plates. The oligomeric compounds were tested in triplicate on each 96-well plate, except for positive and negative controls, which were measured up to six times per plate. At the end of transfection, the transfection medium was replaced by regular growth medium. Twenty-eight hours post-transfection, the cells were subjected to overnight (sixteen to eighteen hours) serum starvation using serum free growth medium. Forty-four hours post-transfection, the cells in the transfected wells were treated with either no insulin (“basal” Experiment 1, for identification of insulin-mimetic compounds) or with 1 nM insulin (“insulin treated” Experiment 2, for identification of insulin sensitizers) for four hours. At the same time, in both plates, cells in some of the un-transfected control wells are treated with 100 nM insulin to determine maximal insulin response. At the end of the insulin or no-insulin treatment (forty-eight hours post-transfection), total RNA is isolated from both the basal and insulin treated (1 nM) 96-well plates, and the amount of total RNA from each sample is determined using a Ribogreen assay (Molecular Probes, Eugene, Oreg.). Real-time PCR is performed on all the total RNA samples using primer/probe sets for three insulin responsive genes: PEPCK-c, IGFBP-1 and follistatin. Expression levels for each gene are normalized to total RNA, and values+standard deviation are expressed relative to the transfectant only untreated control (UTC) and negative control compounds.
(§3) Protocols for treatment of HepG2 cells and transfection of oligomeric compounds are as described in Example 18. Also as described in Example 18, forty-four hours post-transfection, the cells in the transfected wells were treated with either no insulin (“basal” Experiment 3 (below), for identification of insulin-mimetic compounds) or with 1 nM insulin (“insulin treated” Experiment 4 (below), for identification of insulin sensitizers) for four hours. At the same time, in both plates, cells in some of the un-transfected control wells are treated with 100 nM insulin to determine maximal insulin response. At the end of the insulin or no-insulin treatment (forty-eight hours post-transfection), total RNA is isolated from both the basal and insulin treated (1 nM) 96-well plates, and the amount of total RNA from each sample is determined using a Ribogreen assay (Molecular Probes, Eugene, Oreg.).

follistatin = assay: Follistatin mRNA expression in HepG2 cells; assay type: cell-based, human; settings: for Follistatin mRNA expression: Experiment 2, insulin treated: HepG2 cells transfected with oligomeric compound, 1 nM insulin for four hours, UTC + 1 nM insulin = 100
Description: as §1, §2, §3

IGFBP-1 = IGFBP-1 mRNA expression in HepG2 cells; assay type: cell-based, human; settings: for IGFBP1 mRNA expression: Experiment 2, insulin treated: HepG2 cells transfected with oligomeric compound, 1 nM insulin for four hours, UTC + 1 nM insulin = 100
Description: as §1, §2, §3

[1] = system: BJ, B16-F10, T47D, T47Dp53 and HeLa cells; assay: Cell cycle assay (propidium iodide flow cytometry), cell line panel; assay type: cell-based; settings: for G1 (percentage of cells in phase of the cell cycle) / G2/M (percentage of cells in phase of the cell cycle) / S (percentage of cells in phase of the cell cycle) / SubG1 (percentage of cells in phase of the cell cycle) / aneuploid (percentage of cells): 150 nM oligomeric compound, 4.5 μg/ml LIPOFECTIN, after 72 hours, propidium iodide flow cytometry
T47D cells = assay: Caspase-3 activity assay (apoptosis) in T47D cells; settings: for Fold Increase over UTC (caspase-3 activity, apoptosis): 200 nM oligomeric compound, experiment of Table 12
HeLa cells = assay: Cell cycle assay in HeLa cells; assay type: cell-based, human; settings: HeLa cells, 150 nM oligomeric compound; for % cells aneuploid / % cells in cell cycle phase G1 / % cells in cell cycle phase G2/M / % cells in cell cycle phase S / % cells in cell cycle phase subG1: 24 hours, relative to untreated control (UTC = 100); for % cells in cell cycle phase: G1 / % cells in cell cycle phase: G2/M / % cells in cell cycle phase: S / % cells in cell cycle phase: aneuploid / % cells in cell cycle phase: subG1: 48 hours after treatment, relative to untreated control (UTC=100)
[2] = Experiment 3, basal (no insulin), HepG2 cells, 48 hours post-transfection
[3] = Experiment 4, insulin-sensitization: HepG2 cells treated with 1 nM insulin for four hours, 48 h post-transfection, mRNA by real-time PCR

| Substance | decrease in PEPCK-c mRNA (PEPCK-c) [%] | G1 (percentage of cells in phase of the cell cycle) [1] [%] | G2/M (percentage of cells in phase of the cell cycle) [1] [%] | S (percentage of cells in phase of the cell cycle) [1] [%] | SubG1 (percentage of cells in phase of the cell cycle) [1] [%] | aneuploid (percentage of cells) [1] [%] | % cells aneuploid (HeLa cells) [%] | % cells in cell cycle phase G1 (HeLa cells) [%] | % cells in cell cycle phase G2/M (HeLa cells) [%] | % cells in cell cycle phase S (HeLa cells) [%] | % cells in cell cycle phase subG1 (HeLa cells) [%] | % cells in cell cycle phase: G1 (HeLa cells) [%] | % cells in cell cycle phase: G2/M (HeLa cells) [%] | % cells in cell cycle phase: S (HeLa cells) [%] | % cells in cell cycle phase: aneuploid (HeLa cells) [%] | % cells in cell cycle phase: subG1 (HeLa cells) [%] | other results |
| --- | --- | --- | --- | --- | --- | --- | --- | --- | --- | --- | --- | --- | --- | --- | --- | --- | --- |
| ISIS 341804: SEQ ID NO: 761, targeting mir-94/mir-106b (antisense ATCTGCACTGTCAGCACTTT; all 2'-MOE, all phosphorothioate, methylation of C not given here) | 56 |  |  |  |  |  |  |  |  |  |  |  |  |  |  |  |  |
| 328367 (eA*e[5mC]*eT*eG*eA*dG*dG*dG*d[5mC]*dG*dG*d[5mC]*d[5mC]*d[5mC]*dG*eG*eG*e[5mC]*eA*eG) [compound 328367] |  |  |  |  |  |  |  |  |  |  |  |  |  |  |  |  | PEPCKc mRNA expression (PEPCK-c): 85; Follistatin mRNA expression (follistatin): 107; IGFBP1 mRNA expression (IGFBP-1): 141 |
| AGAAGGTGGGGAGCAGCGTCA (anti-miR; chemistry not fully specified) [ISIS 328115, uniform 2′-MOE PS; targets hypothetical miRNA-142] |  |  |  |  |  |  |  |  |  |  |  |  |  |  |  |  | reduction of PEPCK-c mRNA expression (PEPCK-c): 41% |
| 328761 (antisense eG*e[5mC]*eA*eG*eG*d[5mC]*dT*dA*dA*dA*dA*dG*dA*dA*dA*eT*eA*eA*eG*e[5mC]) [compound 328761] |  |  |  |  |  |  |  |  |  |  |  |  |  |  |  |  | PEPCKc mRNA expression (PEPCK-c): 64; PEPCK-c (% UTC) (PEPCK-c; [2]): 48 % UTC; PEPCK-c (% UTC) (PEPCK-c; [3]): 55 % UTC; Follistatin mRNA expression (follistatin): 53; Follistatin (% UTC) (follistatin; [2]): 91 % UTC; Follistatin (% UTC) (follistatin; [3]): 98 % UTC; IGFBP1 mRNA expression (IGFBP-1): 193; IGFBP-1 (% UTC) (IGFBP-1; [2]): 118 % UTC; IGFBP-1 (% UTC) (IGFBP-1; [3]): 93 % UTC |
| 328424 (antisense eA*eG*eG*eA*eA*dG*d[5mC]*dA*d[5mC]*dA*d[5mC]*dA*dT*dT*dA*eT*e[5mC]*eA*e[5mC]*eA) [compound 328424] |  | 61.9 | 14.4 | 23.7 | 3.1 | 16.9 | 74 | 110 | 112 | 85 | 60 | 103 | 101 | 91 | 111 | 89 | Fold Increase over UTC (caspase activity) (T47D cells; T47D cells, 200 nM, 48 hours, relative to untreated control): 0.9 |
| TCAGTTTTGCATGGATTTGCACA (anti-miR; chemistry not fully specified) [ISIS 327922, uniform 2′-MOE PS; targets mir-19b-2] | 23 |  |  |  |  |  |  |  |  |  |  |  |  |  |  |  | reduction of PEPCK-c mRNA expression (PEPCK-c): 24% |
| ISIS 341805: SEQ ID NO: 762, targeting mir-184 (antisense ACCCTTATCAGTTCTCCGTCCA; all 2'-MOE, all phosphorothioate, methylation of C not given here) | 60 |  |  |  |  |  |  |  |  |  |  |  |  |  |  |  |  |
| 328419 (antisense eT*eG*eT*eT*eG*d[5mC]*d[5mC]*dT*dA*dA*d[5mC]*dG*dA*dA*d[5mC]*eA*e[5mC]*eA*eG*eA) [compound 328419] |  | 51.2 | 16.3 | 32.5 | 6.0 | 17.9 | 77 | 109 | 124 | 79 | 87 | 99 | 107 | 96 | 112 | 83 | Fold Increase over UTC (caspase-3 activity, apoptosis) (T47D cells; T47D cells, 48 hours): 0.7 fold |
| 328388 (eT*e[5mC]*e[5mC]*e[5mC]*eA*dT*dA*dG*d[5mC]*dA*dG*dG*dG*d[5mC]*dA*eG*eA*eG*e[5mC]*e[5mC]; antisense) [compound 328388] |  | 57.5 | 14.6 | 28 | 4.0 | 14.5 | 85 | 110 | 115 | 83 | 120 | 99 | 102 | 101 | 126 | 112 | Fold Increase over UTC (caspase-3 activity, apoptosis) (T47D cells; T47D cells, 48 hours): 0.9 fold |
| GCTACCTGCACTGTAAGCACTTTT (chemistry not given here) [ISIS 327911, uniform 2′-MOE PS; targets mir-106] | 48 |  |  |  |  |  |  |  |  |  |  |  |  |  |  |  | percentage of cells in the G2/M phase ([1]; 150 nM, 72 hours (Table 29)): increased percentage of cells in the G2/M phase |
| 328644 (eG*eA*e[5mC]*eA*eA*dG*dG*dT*dG*dG*dG*dA*dG*d[5mC]*dG*eA*eG*eT*eG*eG; antisense) [compound 328644] |  | 58.4 | 14 | 27.6 | 7.2 | 17.5 | 68 | 113 | 109 | 84 | 71 | 101 | 98 | 101 | 82 | 52 | Fold Increase over UTC (caspase-3 activity, apoptosis) (T47D cells; T47D cells, 48 hours): 0.7 fold |
| ISIS 328394: oligomeric compound targeting mir-181a (eG*eT*eT*eT*eT*dT*dT*d[5mC]*dA*dA*dA*dT*d[5mC]*d[5mC]*d[5mC]*eA*eA*eA*e[5mC]*eT) |  |  |  |  |  |  |  |  |  |  |  |  |  |  |  |  | percentage of aneuploid cells ([1]; 150 nM, 72 hours (Table 29)): higher than average percentages of aneuploid cells; apoptosis in T47D cells (T47D cells; caspase assay, 200 nM, conclusion from Tables 9-12): prevent or have a protective effect from apoptosis |
